Laboratory results taken from patent US20220386606A1, “SPECIFICALLY SUBSTITUTED 3-PHENYL-5-SPIROCYCLOPENTYL-3-PYRROLIN-2-ONES AND THEIR USE AS HERBICIDES” (Bayer Aktiengesellschaft, priority 2019, published 2022).

Experiments:
ECHCG [1] = experiment: Post-emergence herbicidal action against ECHCG; type: in vivo, Echinochloa crus-galli; settings: 80 g/ha, visual assessment about 3 weeks after treatment vs untreated controls
Method in brief: (§1)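 Visual scoring about 3 weeks after treatment gave % herbicidal action relative to untreated plants (0% = control-like, 100% = plants dead). Compounds, as WP or EC with 0.2% wetting agent, were sprayed onto green parts at 600–800 l/ha. Plants had reached the one-leaf stage, 2–3 weeks after sowing in sandy loam under greenhouse conditions.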

ALOMY [2] = experiment: Pre-emergence herbicidal action against ALOMY; type: in vivo, Alopecurus myosuroides; settings: 320 g/ha, scored visually after 3 weeks vs untreated controls
Method in brief: (§2)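 Pots of sandy loam with covered seeds receive a surface application of compound (WP or EC; aqueous, 600 to 800 L/ha, 0.2% wetting agent) before emergence. Under good greenhouse growth conditions, percent damage is judged by eye at 3 weeks against untreated controls.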

LOLRI [3] = experiment: Pre-emergence herbicidal action against LOLRI (Table 8, titled post-emergence at 320 g/ha); type: in vivo, Lolium rigidum; settings: table stands in the pre-emergence section
Method in brief: as §2

DIGSA [4] = experiment: Pre-emergence herbicidal action against DIGSA; type: in vivo, Digitaria sanguinalis; settings: 320 g/ha, scored visually after 3 weeks vs untreated controls
Method in brief: as §2

AMARE [5] = experiment: Pre-emergence herbicidal action against AMARE; type: in vivo, Amaranthus retroflexus; settings: 320 g/ha
Method in brief: as §2

DIGSA [6] = experiment: Post-emergence herbicidal action against DIGSA; type: in vivo, Digitaria sanguinalis; settings: 80 g/ha, visual assessment about 3 weeks after treatment vs untreated controls
Method in brief: as §1

ECHCG [7] = experiment: Pre-emergence herbicidal action against ECHCG; type: in vivo, Echinochloa crus-galli; settings: 320 g/ha, scored visually after 3 weeks vs untreated controls
Method in brief: as §2

SETVI [8] = experiment: Pre-emergence herbicidal action against SETVI; type: in vivo, Setaria viridis; settings: 320 g/ha, scored visually after 3 weeks vs untreated controls
Method in brief: as §2

AVEFA [9] = experiment: Pre-emergence herbicidal action against AVEFA; type: in vivo, Avena fatua; settings: 320 g/ha, scored visually after 3 weeks vs untreated controls
Method in brief: as §2

LOLRI [10] = experiment: Post-emergence herbicidal action against LOLRI; type: in vivo, Lolium rigidum; settings: 80 g/ha, visual assessment about 3 weeks after treatment vs untreated controls
Method in brief: as §1

MATIN = experiment: Pre-emergence herbicidal action against MATIN; type: in vivo; settings: 320 g/ha
Method in brief: as §2

ALOMY [11] = experiment: Post-emergence herbicidal action against ALOMY; type: in vivo, Alopecurus myosuroides; settings: 80 g/ha, visual assessment after about 3 weeks
Method in brief: as §1

VERPE [12] = experiment: Post-emergence herbicidal action against VERPE; type: in vivo, Veronica persica; settings: 80 g/ha, visual assessment about 3 weeks after treatment vs untreated controls
Experimental: (§3) Seeds of monocotyledonous and dicotyledonous weed and crop plants are laid out in sandy loam soil in wood-fiber pots, covered with soil and cultivated in a greenhouse under good growth conditions. 2 to 3 weeks after sowing, the test plants are treated at the one-leaf stage. The compounds of the invention, formulated in the form of wettable powders (WP) or as emulsion concentrates (EC), are then sprayed onto the green parts of the plants as aqueous suspension or emulsion at a water application rate equating to 600 to 800 l/ha with addition of 0.2% wetting agent. After the test plants have been left to stand in the greenhouse under optimal growth conditions for about 3 weeks, the action of the preparations is assessed visually in comparison to untreated controls (herbicidal action in percent (%): 100% activity=the plants have died, 0% activity=like control plants).

AVEFA [13] = experiment: Post-emergence herbicidal action against AVEFA; type: in vivo, Avena fatua; settings: 80 g/ha, visual assessment after about 3 weeks
Method in brief: as §1

VIOTR = experiment: Pre-emergence herbicidal action against VIOTR; type: in vivo, Viola tricolor; settings: 320 g/ha
Method in brief: as §2

ABUTH [14] = experiment: Post-emergence herbicidal action against ABUTH; type: in vivo, Abutylon threophrasti; settings: 80 g/ha, visual assessment about 3 weeks after treatment vs untreated controls
Method in brief: as §1

ABUTH [15] = experiment: Pre-emergence herbicidal action against ABUTH; type: in vivo, Abutylon threophrasti; settings: 320 g/ha
Method in brief: as §2

AMARE [16] = experiment: Post-emergence herbicidal action against AMARE; type: in vivo, Amaranthus retroflexus; settings: 80 g/ha, visual assessment about 3 weeks after treatment vs untreated controls
Experimental: as §3

VERPE [17] = experiment: Pre-emergence herbicidal action against VERPE; type: in vivo, Veronica persica; settings: 320 g/ha
Method in brief: as §2

SETVI [18] = experiment: Post-emergence herbicidal action against SETVI; type: in vivo, Setaria viridis; settings: 80 g/ha, visual assessment about 3 weeks after treatment vs untreated controls
Method in brief: as §1

POLCO = experiment: Pre-emergence herbicidal action against POLCO; type: in vivo, Polygonum convolvulus; settings: 320 g/ha
Method in brief: as §2

HORMU = experiment: Post-emergence herbicidal action against HORMU; type: in vivo, Hordeum murinum; settings: 80 g/ha, visual assessment about 3 weeks after treatment vs untreated controls
Method in brief: as §1

Structure (SMILES)	Post-emergence action against ECHCG in % (ECHCG [1]) [%]	Pre-emergence action against ALOMY in % (ALOMY [2]) [%]	Pre-emergence herbicidal action against LOLRI in % (LOLRI [3]) [%]	Pre-emergence action against DIGSA in % (DIGSA [4]) [%]	Pre-emergence action against AMARE in % (AMARE [5]) [%]	Post-emergence action against DIGSA in % (DIGSA [6]) [%]	Pre-emergence action against ECHCG in % (ECHCG [7]) [%]	Pre-emergence action against SETVI in % (SETVI [8]) [%]	Pre-emergence action against AVEFA in % (AVEFA [9]) [%]	Post-emergence action against LOLRI in % (LOLRI [10]) [%]	Pre-emergence action against MATIN in % (MATIN) [%]	Post-emergence action against ALOMY in % (ALOMY [11]) [%]	Post-emergence action against VERPE in % (VERPE [12]) [%]	Post-emergence action against AVEFA in % (AVEFA [13]) [%]	Pre-emergence action against VIOTR in % (VIOTR) [%]	Post-emergence action against ABUTH in % (ABUTH [14]) [%]	Pre-emergence action against ABUTH in % (ABUTH [15]) [%]	Pre-emergence action against VERPE in % (VERPE [17]) [%]	Post-emergence action against SETVI in % (SETVI [18]) [%]	Pre-emergence action against POLCO in % (POLCO) [%]	further results
CC#Cc1cc(C)c(C2=C(O)C3(CCC(COCC)C3)NC2=O)c(OC)c1 (stereo not shown) [Example I-30]	100	100	100	100	100	100	100	100	90	100	90	90	80	80	100	80					
C=CCOCC1CCC2(C1)NC(=O)C(c1c(C)cc(C#CC)cc1Cl)=C2O (stereo not shown) [Example I-44]	100	100	100	100	100	100	90	100	90	80	80	100		80	100		80	80	100	100	Post-emergence action against AMARE in % (AMARE [16]): 80%
CC#Cc1cc(C)c(C2=C(O)C3(CCC(COCCC)C3)NC2=O)c(Cl)c1 (stereo not shown) [Example I-71]	90	100	100	100		90	100	100	80	90	90	90	80	80	100			90	100		
CC#Cc1cc(Cl)c(C2=C(OC(=O)OCC)C3(CCC(COCC)C3)NC2=O)c(CC)c1 (stereo not shown) [Example P-21]	100					100				100		100	80	100					100		Post-emergence action against HORMU in % (HORMU): 100%
CC#Cc1cc(C)c(C2=C(OC(=O)OCC)C3(CCC(COCC)C3)NC2=O)c(Cl)c1 (stereo not shown) [Example P-28]	100	100	100	100	100	100	100	100	100	100	90	100	80	90	100		90	100	100	80	
CC#Cc1cc(C)c(C2=C(OC(=O)C(C)C)C3(CCC(COCC)C3)NC2=O)c(Cl)c1 (stereo not shown) [Example P-29]	100	100	100	100	100	100	100	100	100	100	90	100	80	90	100		80	100	100	90	
CC#Cc1cc(C)c(C2=C(OC(=O)OCC)C3(CCC(COC)C3)NC2=O)c(Br)c1 (stereo not shown) [Example P-30]	100	100	100	100	100	100	100	100	100	100		100	80	90	100	80	80	80	100	80	
CC#Cc1cc(C)c(C2=C(OC(=O)OCC)C3(CCC(COC)C3)NC2=O)c(Br)c1 (stereo not shown) [Example P-31]	100	100	100	100	100	100	100	100	100	100		90		100	100		90	90	100	90	Post-emergence action against AMARE in % (AMARE [16]): 80%
CC#Cc1cc(C)c(C2=C(OC(=O)OCC)C3(CCC(COCC)C3)NC2=O)c(F)c1 (stereo not shown) [Example P-54]	100	100	100	100	100	100	100	100	90	100		100	80	100	100	80		80		80	
